According to US20200397855A1, “MODULATION OF PLA2-G1B IN THERAPY” (priority 2018, published 2020):

What was measured:
[1] = system: pSTAT5 NT in CD4 T cells stimulated with IL-7; assay: PLA2-GIB bioassay on CD4 T cells: pSTAT5 nuclear translocation in response to IL-7 (confocal microscopy); format: cell-based, human; settings: for effect on nuclear translocation of phosphoSTAT5 (pSTAT5 NT) induced by IL-7: buffer, FIG. 1A; for pSTAT5 NT in response to IL-7: FIG. 2
Text: Purification of Human CD4 T-lymphocytes—Venous blood was obtained from healthy volunteers through the EFS (Etablissement Francais du Sang, Centre Necker-Cabanel, Paris). CD4 T-cells were purified from whole blood using RosetteSep Human CD4+ T cell Enrichment Cocktail (Stem Cell, 15062). This cocktail contains mouse and rat monoclonal antibodies purified from mouse ascites fluid or hybridoma culture supernatant, by affinity chromatography using protein A or Protein G sepharose. These antibodies are bound in bispecific tetrameric antibody complexes which are directed against cell surface antigens on human hematopoietic cells (CD8, CD16, CD19, CD36, CD56 CD66b, TCRγ/δ) and glycophorin A on red blood cells. The rosetteSep antibody cocktail crosslinks unwanted cells in human whole blood to multiple red blood cells, forming immunorosettes. This increases the density of unwanted cells, such that they pellet along with the free red blood cells when centrifuged over a buoyant density medium such as lymphocytes separation medium (Eurobio, CMSMSL01-01).
Whole blood was incubated with RosetteSep Human CD4+ T cell Enrichment Cocktail at 50 μl/ml for 20 minutes at room temperature under gentle shaking (100 rpm), diluted with an equal volume of PBS+2% foetal bovine serum (FBS) and mixed gently. The diluted samples were centrifuged 20 minutes at 1200×g on top of lymphocytes separation medium. The enriched cells were then collected from the density medium at plasma interface and washed twice with PBS+2% FBS. Cells were subsequently resuspended in RPMI 1640 medium (Lonza) supplemented with 5% FBS, 50 mM HEPES pH 7.4, glutamine, penicillin, streptomycin and fungizone (complete medium), counted with a Moxi Z mini automated cell counter (ORFLO, MXZ000). Cells suspension was adjusted at 7×10^6 cells/ml and equilibrated at least 2 h at 37° C. in a 5% CO2 humidified atmosphere.

[2] = system: PLA2-GIB activity on the membrane of Jurkat E6.1 T cells; assay: PLA2-GIB enzymatic assay on [3H] arachidonic acid labelled Jurkat E6.1 T cells; format: cell-based, human; settings: for PLA2-GIB activity vs scrambled PEP3: pretreatment 21 h
Protocol: (§1) Jurkat E6.1 T cells (ECACC 88042803) or gC1qR KO Jurkat E6.1 T cells were incubated for 17 h at 5×10^5 cells/ml with 1 μCi/ml of arachidonic acid [5,6,8,9,11,14,15-^3H(N)] (Perkin Elmer, NET298Z250UC) in RPMI 1640 medium (Lonza) supplemented with 10% FBS, 50 mM HEPES pH 7.4, glutamine, penicillin, streptomycin and fungizone at 2 ml/well in 6-well plates at 37° C. in a 5% CO2 humidified atmosphere. Cells were washed twice with RPMI with 10% FBS by centrifugation at 300×g for 10 minutes at room temperature and then frozen in 90% FBS 10% DMSO at 10^7 cells/ml/vial at −80° C. Percent of [3H] arachidonic acid in CD4 T cells is the (1 minus ratio of [3H] arachidonic acid in the supernatant of CD4 T cells without cells (cpm/ml) on total [3H] arachidonic acid in supernatant and cells (cpm/ml).
To test PLA2-GIB activity on [3H] arachidonic acid labelled Jurkat E6.1 T lymphocytes, cells were unfrozen in 10% FBS RPMI preheated at 37° C. by centrifugation at 300×g for 10 minutes at room temperature, washed twice in 2.5% FBS RPMI, and equilibrated at 5×10^4 or 10^5 Jurkat E6.1 T cells/400 μl/well in 24-well polystyrene plates for 1 h 30 at 37° C. in a 5% CO2 humidified atmosphere. Then HCV core solution or vehicle dilution in 2.5% FBS RPMI at 5.95 μM was mixed with an equal volume of a PLA2-GIB solution at 630 nM or 2 μM 2.5% FBS RPMI and 100 μl were added per well at the same time for 2 h. For peptide treatments, cells were pretreated for 2 h, 4 h or 21 h, as indicated on figures, with 50 μl per well of peptide solutions at 110 μM or 55 μM in 2.5% FBS RPMI. Then 50 μl per well of PLA2-GIB at 630 nM or 2 μM 2.5% FBS RPMI or medium alone were added for 2 h. Cells and supernatant were collected in eppendorf tubes and centrifuged at 580×g for 10 minutes at room temperature. The [3H] arachidonic acid released in cell supernatant was quantified in 300 μl with 16 ml of Ultima gold (Perkin Elmer, 6013329) in low diffusion vials (Perkin Elmer, 6000477) on a counter (tri-Carb 2800 TR liquid scintillation analyzer, Perkin Elmer).

gC1qR = target: T1, gC1qR (Homo sapiens, UniProt Q07021); assay: gC1qR-peptides binding assay (ELISA); settings: peptide coated on microplate, His-tag-gC1qR 0 to 3 μg/well, FIG. 12
T1 sequence (Q07021 74-282): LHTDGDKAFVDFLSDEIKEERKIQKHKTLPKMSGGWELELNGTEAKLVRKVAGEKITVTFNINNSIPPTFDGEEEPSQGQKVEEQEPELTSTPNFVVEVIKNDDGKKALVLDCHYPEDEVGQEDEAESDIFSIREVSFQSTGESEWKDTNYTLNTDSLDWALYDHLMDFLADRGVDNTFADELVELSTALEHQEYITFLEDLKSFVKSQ
Protocol: The unbound protein was removed; the wells washed 2× with TBST (20 mM Tris-HCl pH 7.5, 150 mM NaCl, and 0.05% Tween-20) and the unreacted sites blocked by incubation (30 min, room temp) with 300 μl of 3% BSA in TBST. After washing (2× with TBST), the microtiter plate bound peptides was incubated (2 h, room temp.) with different amount of His-tag-gC1qR ranging from 0 to 3 μg/well in triplicate. After washing (5 times with TBST), 100 μl of anti-His tag-HRP antibody (1:1000; 71840-3, Merck) in 3% BSA in TBST was added per well and incubated for 2 h at room temperature. Microplates wells were then washed (5 times with TBST) and 100 μl of TMB ELISA substrate standard solution (UP664781, Interchim) was added per well. Reaction was stopped with 100 μl per well of a H2SO4 solution at 0.16M and OD at 450 nm was measured on a microplate reader (Tecan Infinite M1000 Pro).

[3] = system: PLA2-GIB enzymatic activity on CD4 T cells membranes; assay: PLA2-GIB enzymatic assay on [3H] arachidonic acid labelled CD4 T cells; format: cell-based, human
Protocol: as §1, with “PLA2-GIB enzymatic assay on [3H] arachidonic acid labelled CD4 T cells or Jurkat” for “Jurkat”, “cells—Purified CD4 T-cells” for “cells (ECACC 88042803) or gC1qR KO Jurkat E6.1 T cells”, “16” for “17”, “2×10^6” for “5×10^5”, “580×g” for “300×g”
To test PLA2-GIB activity on [3H] arachidonic acid labelled CD4 T lymphocytes, cells were unfrozen in 10% FBS RPMI preheated at 37° C. by centrifugation at 580×g for 10 minutes at room temperature, washed twice in 2.5% FBS RPMI, and equilibrated at 2×10^5 CD4 T cells/400 μl/well in 24-well polystyrene plates for 1 h 30 at 37° C. in a 5% CO2 humidified atmosphere. […] Cells and supernatant were collected in eppendorf tubes and centrifuged at 580×g for 10 minutes at room temperature. The [3H] arachidonic acid released in cell supernatant was quantified in 300 μl with 16 ml of Ultima gold (Perkin Elmer, 6013329) in low diffusion vials (Perkin Elmer, 6000477) on a counter (tri-Carb 2800 TR liquid scintillation analyzer, Perkin Elmer).
To study PLA2-GIB effect on CD4 T cells membranes we developed a new enzymatic assay in which CD4 T cells are labelled with [3H] arachidonic acid. When these cells are exposed to PLA2-GIB the enzymatic activity on CD4 T cells releases [3H] arachidonic acid. The quantification of [3H] arachidonic acid allowed us to quantify PLA2-GIB activity.

[4] = peptide alone, without PLA2-GIB, FIG. 5B

Molecule: C1q: Complement component C1q from human serum (Sigma C1740), natural ligand of gC1qR
- inhibition of pSTAT5 NT ([1]; C1q (10 μg/ml) with 5 nM PLA2-GIB, FIG. 6A): 75-85%
- inhibition of pSTAT5 NT ([1]; C1q alone (10 μg/ml), FIG. 6A): 40%

Molecule: NH2-PWNASWSNKSLDDIW-COOH (H-PWNASWSNKSLDDIW-OH) [PEP3]
- PLA2-GIB activity vs scrambled PEP3 ([2]; WT Jurkat E6.1 cells, FIG. 13): increased significantly
- PLA2-GIB activity on the membrane of Jurkat E6.1 T cells vs scrambled PEP3 ([2]; pretreatment 4 h or more, peptide 11 μM, 200 nM PLA2-GIB, FIG. 11): significantly increased
- inhibition of pSTAT5 NT ([1]; 0.025 μg/ml PEP3 with 5 nM PLA2-GIB, FIG. 5B): 18%
- inhibition of pSTAT5 NT ([1]; 0.5 μg/ml PEP3 alone, n=3 donors, FIG. 5C): 5%
- inhibition of pSTAT5 NT ([1]; 2.5 μg/ml PEP3 with 5 nM PLA2-GIB, FIG. 5B): 51%
- effect on pSTAT5 NT [1, 4]: no effect
- binding to gC1qR (gC1qR): binds to gC1qR

Molecule: NH2-PWNATWTQRTLDDIW-COOH (H-PWNATWTQRTLDDIW-OH) [CTL peptide, control peptide (CTL), reference compound]
- effect on pSTAT5 NT [1, 4]: no effect
- effect on pSTAT5 NT ([1]; peptide with 5 nM PLA2-GIB, FIG. 5B): no effect
- binding to gC1qR (gC1qR): essentially do not

Molecule: NH2-SGEGGWSNGSLVDIM-COOH (H-SGEGGWSNGSLVDIM-OH) [HP Pg]
- PLA2-GIB activity vs scrambled PEP3 ([2]; 200 nM PLA2-GIB, FIG. 15): significantly increased

Molecule: NH2-WNWDSKILSDPAWNS-COOH (H-WNWDSKILSDPAWNS-OH) [Scrambled PEP3, Scrambled PEP3 control peptide]
- binding to gC1qR (gC1qR): essentially do not

Molecule: PLA2-GIB: Recombinant human group IB pancreatic phospholipase A2, produced in E. coli or CHO-S (SEQ ID NO: 1)
- effect on nuclear translocation of phosphoSTAT5 (pSTAT5 NT) induced by IL-7 ([1]; 5 nM PLA2-GIB alone): does not affect
- pSTAT5 NT in response to IL-7 ([1]; 5 nM PLA2-GIB, compared with no PLA2-GIB): biologically similar
- inhibition of pSTAT5 NT ([1]; 75 nM PLA2-GIB alone, FIG. 4): 49%
- effect on nuclear translocation of phosphoSTAT5 (pSTAT5 NT) induced by IL-7 ([1]; 75 nM PLA2-GIB alone): significantly decreases
- pSTAT5 NT in response to IL-7 ([1]; 75 nM PLA2-GIB): 50%
- inhibition of pSTAT5 NT ([1]; 250 nM PLA2-GIB alone, FIG. 4): 79%
- pSTAT5 NT in response to IL-7 ([1]; 250 nM PLA2-GIB): 10%

B1: HCV core protein: Recombinant HCV core protein (Prospec HCV-011), SEQ ID NO: 43 (protein)
chain: MSTNPKPQRKTKRNTIRRPQDVKFPGGGQIVGGVYLLPRRGPRLGVRATRKTSERSQPRGRRQPIPKARRPEGRTWAQPGYPWPLYGNEGMGWAGWLLSPRGSRPSWGPTDPRRRSRNLGKVIDTLTCGFADLMGYVPLVGAPLGGAARALAHGVRALEDGVNYATGNLPGCSFSISLWXLLSCLTIPASA
modifications: not fully specified; X: residue not identified in the source
- PLA2-GIB activity on the membrane of Jurkat E6.1 T cells ([2]; HCV core 595 nM (10 μg/ml), FIG. 14): significantly increased
- release of [3H] arachidonic acids by CD4 T cells ([3]; 10 μg/ml HCV core protein alone, FIG. 8B): slightly and significantly increases
- fold increase of PLA2-GIB activity ([3]; 10 μg/ml HCV core protein, 63 nM PLA2-GIB, FIG. 8A): 26 fold
- fold increase of PLA2-GIB activity ([3]; 10 μg/ml HCV core protein, 63 nM PLA2-GIB, n=3 donors, FIG. 8B): 26 fold
- fold increase of PLA2-GIB activity ([3]; 10 μg/ml HCV core protein, 200 nM PLA2-GIB, FIG. 8A): 16 fold
- fold increase of PLA2-GIB activity ([3]; 10 μg/ml HCV core protein, 200 nM PLA2-GIB, n=3 donors, FIG. 8B): 16 fold
- fold increase of PLA2-GIB activity ([3]; 20 μg/ml HCV core protein, 63 nM PLA2-GIB, FIG. 8A): 36 fold
- fold increase of PLA2-GIB activity ([3]; 20 μg/ml HCV core protein, 200 nM PLA2-GIB, FIG. 8A): 26 fold
- release of [3H] arachidonic acids by CD4 T cells ([3]; HCV core protein alone at 10 and 20 μg/ml, FIG. 8A): slightly induces
